From publication PMC9704104, “Towards safer anti-inflammatory therapy: synthesis of new thymol–pyrazole hybrids as dual COX-2/5-LOX inhibitors” (Journal of Enzyme Inhibition and Medicinal Chemistry, 2022)
Values joined by “and” are separate entries in the source; they are usually repeats but may differ in a detail not shown here. Equal values may be shown once.

Experiments:
[1] = target: T1, COX-2 (Ovis aries, UniProt P79208); test: In vitro COX-2 inhibitory assay (Cayman colorimetric COX (ovine) inhibitor screening assay kit); format: biochemical
T1 sequence (P79208 17-603): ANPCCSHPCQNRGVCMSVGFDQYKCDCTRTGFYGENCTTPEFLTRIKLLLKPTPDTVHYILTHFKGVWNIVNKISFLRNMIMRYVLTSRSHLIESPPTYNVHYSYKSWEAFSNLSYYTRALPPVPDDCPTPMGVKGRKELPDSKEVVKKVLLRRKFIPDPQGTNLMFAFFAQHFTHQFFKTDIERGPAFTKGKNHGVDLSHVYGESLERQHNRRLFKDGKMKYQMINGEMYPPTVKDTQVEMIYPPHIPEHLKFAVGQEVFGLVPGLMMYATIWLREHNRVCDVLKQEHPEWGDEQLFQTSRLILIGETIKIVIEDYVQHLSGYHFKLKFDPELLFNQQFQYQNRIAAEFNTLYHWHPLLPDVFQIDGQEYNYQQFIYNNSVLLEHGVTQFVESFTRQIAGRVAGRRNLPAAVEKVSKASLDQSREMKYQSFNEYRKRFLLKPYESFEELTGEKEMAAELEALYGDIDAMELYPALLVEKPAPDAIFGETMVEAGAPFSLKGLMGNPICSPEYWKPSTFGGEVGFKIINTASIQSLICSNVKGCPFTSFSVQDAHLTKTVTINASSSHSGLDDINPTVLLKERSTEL
Experimental: (Page: S20, Supplementary file).
Anti-inflammatory activity
In vitro COX-1 and COX-2 inhibitory assay […]
supplied by Cayman chemicals, Ann Arbor, MI, USA according to reported method 1. The colorimetric COX inhibitor screening assay utilizes the peroxidase component of cyclooxygenase. The peroxidase activity was assayed calorimetrically by monitoring the appearance of oxidized N,N,N',N'-tetramethyl-1,4-phenylenediamine (TMPD) at 590nm. The appearance of reagent was carried out following the instructions […]
The half- maximal inhibitor concentrations (IC50µM) were determined and the selectivity index (SI) values were calculated as IC50 (COX-1)/IC50 (COX-2).
1) Background wells- 160 µL of assay buffer and 10 µL of heme were added to background wells.
2) The 100% Initial activity wells- 150 µL of assay buffer, 10 µL of heme and 10 µL of enzyme (COX-1 or COX-2) were added.
3) Inhibitor well- 150 µL of assay buffer, 10 µL of heme and 10 µL of enzyme were added. […]
10) The absorbance was measured at 590 nm using a plate reader. […]
1) The average absorbance of all samples was determined.
2) The absorbance of background wells was subtracted from absorbance of the 100% Initial activity […]
7) Remove the cover and read the absorbance at 490-500 nm using a plate reader. […]
2) The absorbance of blank wells was subtracted from absorbance of the 100% Initial activity and the […]

[2] = system: formalin-induced rat paw oedema; test: Formalin-induced paw oedema test (acute inflammation model); format: in vivo
Experimental: Animals Adult female albino rats weighing 150-250 g were used (Experimental Animal Centre in Alexandria University). All animals accessed to food and water ad libitum and were housed in 12 h dark/light cycle in a controlled condition at 23-250C. They were allowed to acclimatize for 1 week prior to experimentation. Procedures involving animals and their care were conducted in conformity with the Guide for the Care and Use of Laboratory Animals published by US National Institute of Health4 (NIH publication No. 83-23, revised) and following the ethical guidelines of Alexandria University on laboratory animals. In all tests, adequate considerations were adopted to reduce pain or discomfort of animals (Approved by AlexU-IACUC) 3. […]
Formalin-induced paw edema test (acute inflammation model):
A solution of freshly prepared formalin 5% was used as a phlogistic agent. A mark was made on the lateral malleolus of the rats’ paws delineating the injection sites. The initial volume of paw was measured by means of digital calibrated Vernier caliper .
After 45 minutes, 40 μl formalin were injected subcutaneously into the sub plantar tissue of the right hind paw of all groups under light ether anesthesia . An equal volume of saline was injected into the left hind paw and served as internal control for the degree of inflammation in the right hind paw. 5, 6 The volume of paw was measured in different treatment groups, 4 h following the formalin injection and the amount of increase in paw volume (edema volume) was calculated by subtracting the volumes before and 4 h after the injection of formalin. Edema was expressed as an increase in the volume of paw, and the percentage of edema inhibition (or percent protection against inflammation) for each rat and each group was calculated according to the following equation: […]
Where Vt is the mean volume of edema at specific time interval (4 h) and Vo is the mean volume of edema […]
Relative potency of the tested compounds was expressed as % inhibition of edema for the tested compounds

Cc1ccc(C(C)C)c(O)c1C=NNC(=O)c1cc(-c2ccccc2)n(-c2ccccc2)n1 [Compound 8d, N'-(2-Hydroxy-3-isopropyl-6-methylbenzylidene)-1,5-diphenyl-1H-pyrazole-3-carbo-hydrazide]
Selectivity index ([1]; SI = COX-1 IC50/COX-2 IC50): 92.6 | IC50 ([1]; mean of three replicates ± SD): 0.11 ± 0.007 µM | % Inhibition of oedema volume ([2]; 4 h, individual rats 1-3, 5 mg/kg orally, 5 mg/kg): 58.10% and 50.70% and 53.10% | Volume of oedema (ml) 4h ([2]; 4 h after formalin, individual rats 1-3, 5 mg/kg orally, 5 mg/kg): 5.95 mL and 6.03 mL and 6.02 mL | Abs diff. ([2]; 4 h minus 0, individual rats 1-3, 5 mg/kg orally, 5 mg/kg): 0.93 and 1.07 and 1.0 | % Relative potency (4h) celecoxib, Mean ± SD ([2]; relative to % inhibition of celecoxib at 4 h, group mean ± SD): 149.0 ± 17.26% | % Relative potency (4h) celecoxib ([2]; relative to % inhibition of celecoxib at 4 h, individual rats 1-3): 165.40% and 131.0% and 150.70% | % Relative potency (4h) diclofenac, Mean ± SD ([2]; relative to % inhibition of diclofenac at 4 h, group mean ± SD): 103.7 ± 16.65% | % Relative potency (4h) diclofenac ([2]; relative to % inhibition of diclofenac at 4 h, individual rats 1-3): 122.90% and 93.20% and 95.0% | Volume of oedema (ml) 0 ([2]; time 0, individual rats 1-3, 5 mg/kg orally, 5 mg/kg): 5.02 mL and 4.96 mL
